Entries after “also recorded” stand apart in the source; their conditions may differ. Blank lines part the entries; values can stand above or below the compound they belong to.
Columns and labels:
[1] = test system: 179-nucleotide receptor domain (179 lysC) of the lysC lysine riboswitch; assay: In-line probing assay, ligand binding to 179 lysC; design: species or system B. subtilis; details: for binding to 179 lysC / lysine aptamer (in words): in vitro
[2] = test system: 179-nucleotide receptor domain (179 lysC) of the lysC lysine riboswitch; details: Sudarsan 2006; cited from earlier work
[3] = test system: lysC lysine riboswitch upstream of lacZ reporter gene; assay: In vivo reporter gene (β-galactosidase) expression assay, wild-type lysC riboswitch; format: cell-based, B. subtilis; details: for repression of β-galactosidase reporter gene expression controlled by lysC riboswitch: 3 h growth in presence of compound (5 mM, FIG. 3c); for reporter gene expression at the compound's MIC: at respective MICs
B. subtilis 168 (1A1) = assay: Antibacterial activity assay (growth curves, MIC) in chemically defined minimal media; format: cell-based; details: for bacterial growth in minimal medium: 100 μM compound, chemically-defined minimal medium; for complete inhibition of bacterial growth for 24 h: minimal medium
[4] = test system: B. subtilis 168 strain 1A1 (WT); assay: Sporulation assay, WT strain; details: for % Viable spore formation, WT: spores after heat shock relative to CFU before heat shock
B. cereus = format: cell-based, Bacillus cereus; details: minimal medium
[5] = test system: lysC riboswitch with the M1 or M2 mutation upstream of β-galactosidase reporter; assay: Reporter gene (β-galactosidase) expression assay, M1 or M2 riboswitch constructs; format: cell-based, B. subtilis; details: high compound concentrations (lysine as high as 5 mM)
B. subtilis M2 strain = assay: Sporulation assay, M2 strain; details: 2 mM analog; spores after heat shock relative to CFU before heat shock
[6] = test system: resistant B. subtilis strains (M1, M2); assay: MIC toward L-4-oxalysine-resistant strains (M1, M2); format: cell-based; details: for effect of M1 and M2 mutations on susceptibility: M1 and M2 strains
[7] = test system: B. subtilis lysine auxotroph strain 1A40; format: cell-based; details: 1 mM compound, 3 h, minimal media
[8] = test system: lysC lysine riboswitch upstream of lacZ reporter gene; details: Sudarsan 2006; cited from earlier work

Structure (SMILES): CN[C@@H](CCCCN)C(=O)O [Compound 11, L-N^2-methyllysine]
binding to 179 lysC / lysine aptamer (in words) [1]: does not tolerate modifications at N2

Structure (SMILES): CC(=O)N[C@@H](CCCCN)C(=O)O [Compound 5, L-N^2-acetyllysine]
binding to 179 lysC / lysine aptamer (in words) [1]: does not tolerate modifications at N2

Structure (SMILES): NCC(O)CC[C@H](N)C(=O)O (stereo partly shown) [5-hydroxylysine]
binding to the lysC riboswitch (previous report) [2]: fails to bind

Structure (SMILES): CC(=N)NCCCC[C@H](N)C(=O)O [Compound 7, L-N^6-1-iminoethyllysine]
repression of β-galactosidase reporter gene expression controlled by lysC riboswitch [3]: does not repress
bacterial growth in minimal medium (B. subtilis 168 (1A1)): fails to inhibit cell growth
binding to 179 lysC / lysine aptamer (in words) [1]: strong binding

Structure (SMILES): NCCS(=O)(=O)C[C@H](N)C(=O)O [Compound 1, L-3-[(2-aminoethyl)-sulfonyl]-alanine]
formation of viable spores (in words) [4]: inhibit the formation of viable spores
% Viable spore formation, WT ([4]; 0.2 mM analog): 7%
% Viable spore formation, WT ([4]; 2 mM analog): 0%
repression of β-galactosidase reporter gene expression controlled by lysC riboswitch [3]: significantly repress
reporter gene expression at the compound's MIC [3]: completely repress
complete inhibition of bacterial growth for 24 h (B. subtilis 168 (1A1)): completely inhibit bacterial growth
growth inhibition of B. cereus relative to B. subtilis (B. cereus): 13 fold
β-galactosidase expression from M1 or M2 constructs [5]: fully active β-galactosidase is still expressed
% Viable spore formation, M2 (B. subtilis M2 strain): 17%
effect of M1 and M2 mutations on susceptibility [6]: confer resistance
binding to 179 lysC / lysine aptamer (in words) [1]: bind well

Structure (SMILES): N=C(N)NCCCC[C@H](N)C(=O)O [Compound 3, L-homoarginine]
growth of lysine auxotroph strain 1A40 [7]: supports the growth; also recorded: support growth
binding to 179 lysC / lysine aptamer (in words) [1]: binds strongly

Structure (SMILES): NCCSC[C@H](N)C(=O)O [AEC, L-aminoethylcysteine]
repression of lysC-regulated reporter gene (previous report) [8]: represses the expression
binding to the lysC riboswitch (previous report) [2]: bind well; also recorded: binds to the lysC riboswitch

Structure (SMILES): NCCCC[C@H](N)C(=O)O [lysine, L-lysine]
repression of β-galactosidase reporter gene expression controlled by lysC riboswitch [3]: strongly repressed
growth of lysine auxotroph strain 1A40 [7]: support growth
Kd [1]: 0.36 µM

Structure (SMILES): NCC(=O)CCC(N)C(=O)O (racemic) [Compound 8, DL-5-oxolysine]
formation of viable spores (in words) [4]: do not
% Viable spore formation, WT ([4]; 2 mM analog): 47%
repression of β-galactosidase reporter gene expression controlled by lysC riboswitch [3]: do not repress expression
bacterial growth in minimal medium (B. subtilis 168 (1A1)): modest level of growth inhibition activity
% Viable spore formation, M2 (B. subtilis M2 strain): 9%
binding to 179 lysC / lysine aptamer (in words) [1]: poor affinity; also recorded: rejected by the lysine aptamer

binding to 179 lysC / lysine aptamer (in words) [1]: no binding is observed
Structure (SMILES): C[N+](C)(C)CCCC[C@H](N)C(=O)O [Compound 12, L-N^6-trimethyllysine]

Structure (SMILES): NCCOC[C@H](N)C(=O)O [Compound 2, L-4-oxalysine]
formation of viable spores (in words) [4]: inhibit the formation of viable spores
% Viable spore formation, WT ([4]; 0.2 mM analog): 71%
% Viable spore formation, WT ([4]; 2 mM analog): 6%
repression of β-galactosidase reporter gene expression controlled by lysC riboswitch [3]: significantly repress
reporter gene expression at the compound's MIC [3]: completely repress
complete inhibition of bacterial growth for 24 h (B. subtilis 168 (1A1)): completely inhibit bacterial growth
β-galactosidase expression from M1 or M2 constructs [5]: fully active β-galactosidase is still expressed
% Viable spore formation, M2 (B. subtilis M2 strain): 65%
increase of MIC in resistant colonies ([6]; 24 colonies isolated by serial passage, versus wild type): at least 9 fold
binding to 179 lysC / lysine aptamer (in words) [1]: bind well

binding to 179 lysC / lysine aptamer (in words) [1]: poor affinities
Structure (SMILES): Nc1ccccc1C(=O)C[C@H](N)C(=O)O [Compound 10, L-2-amino-3-(2-aminobenzoyl)-propionic acid]

Structure (SMILES): NC/C=C/CC(N)C(=O)O (racemic) [Compound 4, DL-trans-2,6-diamino-4-hexenoic acid]
repression of β-galactosidase reporter gene expression controlled by lysC riboswitch [3]: significantly repress
complete inhibition of bacterial growth for 24 h (B. subtilis 168 (1A1)): completely inhibit bacterial growth
effect of M1 and M2 mutations on susceptibility [6]: confer resistance
binding to 179 lysC / lysine aptamer (in words) [1]: bind well

Structure (SMILES): Nc1cc(C[C@H](N)C(=O)O)ccc1O [Compound 9, L-3-aminotyrosine]
formation of viable spores (in words) [4]: do not
% Viable spore formation, WT ([4]; 2 mM analog): 75%
repression of β-galactosidase reporter gene expression controlled by lysC riboswitch [3]: do not repress expression
bacterial growth in minimal medium (B. subtilis 168 (1A1)): modest level of growth inhibition activity
% Viable spore formation, M2 (B. subtilis M2 strain): 75%
binding to 179 lysC / lysine aptamer (in words) [1]: poor affinities; also recorded: rejected by the lysine aptamer
